Assay results as given in PMC1764428, “Secretion and properties of a hybrid Kluyveromyces lactis-Aspergillus niger β-galactosidase” (Microbial Cell Factories, 2006).

Assays:
[1] = tested on: T1, hybrid protein LAC4-LACA-KpnI; experiment: D-galactose release by coupled galactose dehydrogenase / NADH kit at […] nm, Lineweaver-Burk; assay type: biochemical, Kluyveromyces lactis;Aspergillus niger; conditions: crude extract (60 μg protein); lactose 5-160 mM
T1 construct: single-chain fusion: K. lactis LAC4 without its 297 C-terminal residues (fifth domain), replaced by 274 C-terminal residues of A. niger LACA (from pVK1.1) at KpnI site; expressed in K. lactis MW190-9B; crude extract

[2] = tested on: T1, hybrid protein LAC4-LACA-KpnI; experiment: o-nitrophenol release, Lineweaver-Burk; assay type: biochemical, Kluyveromyces lactis;Aspergillus niger; conditions: crude extract (30 μg protein); buffer Z with 1.6 mM MgSO4; ONPG 2-12 mM

Compound | Km [1] [mM] | Km [2] [mM]
OC[C@H]1O[C@@H](O[C@H]2[C@H](O)[C@@H](O)C(O)O[C@@H]2CO)[C@H](O)[C@@H](O)[C@H]1O (some centres unmarked) [lactose] | 8.7 | –
O=[N+]([O-])c1ccccc1O[C@@H]1O[C@H](CO)[C@H](O)[C@H](O)[C@H]1O [ONPG] | – | 0.8
